Earlier results on one molecule are cited in US20070071706A1, “Lipodissolving dermatological topical preparation” (priority 2005, published 2007).

SMILES strings stand for the structures.

For the data set the following is noted: used as transdermal permeability enhancer / carrier; delivered substance erythromycin; rats.

Take `CC(O)CO` (centres unmarked) [propylene glycol]: the “local accumulation in the subcutaneous tissue of the substance being transdermally delivered” value was “very negligible and short living subcutaneous accumulation”; the “systemic absorption of the substance being transdermally delivered” value is listed as “good systemic absorption”.
